This passage reports IC50 results from US20110098296A1, “Thiazole And Oxazole Kinase Inhibitors” (priority 2007, published 2011).

pIC50: −log10 of the molar value. Counter-ions that a name gives are not always drawn. Bounds are passed on as bounds.

One experiment concerns the target T1, ErbB2 (Homo sapiens, UniProt P04626).
T1 construct: made in house; host or cells: baculovirus expression system
In words: ErbB-2 substrate phosphorylation assay (HTRF). The format is biochemical. Conditions: Method (A): Enzyme Mix incubated with compound at 20° C. for 1 hr, reaction started by adding Substrate Mix. As for the experimental part:
(§1) Compounds of the present invention were tested for EGFR and ErbB-2 protein tyrosine kinase inhibitory activity in substrate phosphorylation assays using enzymes purified from a baculovirus expression system. Reagent production was conducted essentially as described in Brignola, P. S., et al., (2002) J. Biol. Chem. 277(2):1576-1585.
(§2) The method measures the ability of the isolated enzyme to catalyse the transfer of the gamma-phosphate from ATP onto the tyrosine residue of a biotinylated synthetic peptide referenced “Peptide C” in Brignola, P. S., et al., (2002) J. Biol. Chem. 277(2):1576-1585. The extent of tyrosine phosphorylation was measured using an anti-phosphotyrosine antibody, and quantified by homogenous time-resolved fluorescence (HTRF).
(§3) Reactions were performed in black 384-well polystyrene flat-bottom plates in a final volume of 20 μl. Assays were performed by adding 10 μl of each of the following solutions, Substrate Mix and Enzyme Mix: The Substrate Mix contained 100 mM 3-[N-morpholino]propanesulfonic acid (MOPS) (pH 7.5), 2 mM MnCl2, 20 μM ATP, 0.01% Tween-20, 0.1 mg/mL (BSA), 0.8 uM peptide substrate, and 1 mM dithiothreitol. The Enzyme Mix contained 100 mM MOPS (pH 7.5); 0.01% Tween-20; 0.1 mg/mL BSA, and either 0.8 nM EGFR, 10 nM ErbB2, or 1 nM ErbB4
(§4) During the course of these studies, two separate methods have been used to measure the potency of compounds. In Method A (indicated as “(A)” in the tables below), the Enzyme Mix was added to the compound plates and the plates were incubated at 20° C. for 1 hr. The reactions were then started by adding the Substrate Mix. In Method B (indicated as “(B)” in the tables below), the Substrate Mix was added to the compound plates first, then the reaction was started by adding the Enzyme Mix.
(§5) After initiating the reaction with either method describe above, the reactions were allowed to proceed for 90 minutes at 20° C. The reactions were then terminated by the addition of 20 μL 100 mM EDTA to each well. 40 μL/well of HTRF detection mix were added to the assay plates. The final concentrations of the detection reagents were: 100 mM HEPES (pH7.5), 0.1 mg/mL BSA, 15 nM streptavidin-labeled allophycocyanin (PerkinElmer), and 1 nM europium-labeled anti-phosphotyrosine antibody (PerkinElmer). Assay plates were left unsealed and were counted in a Wallac Multilabel Counter 1420 (PerkinElmer).
(§6) Compounds under analysis were dissolved in dimethylsulfoxide (DMSO) to 1.0 mM and serially diluted 1 to 3 with DMSO through twelve dilutions. 1 μL of each concentration was transferred to the corresponding well of an assay plate. This creates a final compound concentration range from 0.00027 to 47.6 μM.
(§7) The data for dose responses were plotted as % Inhibition calculated with the data reduction formula 100*(1−(U1−C2)/(C1−C2)) versus concentration of compound where U1 is the unknown value, C1 is the average control value obtained for 4.76% DMSO, and C2 is the average control value obtained for 0.035 M EDTA. Data were fitted with a curve described by:
(§8) where Vmax is the upper asymptote, Y2 is the Y intercept, and K is the IC50. The results for each compound were recorded as pIC50s, calculated as follows: […]

For a further experiment, the system named is SK-MEL-28 tumor cells. The experiment in a line: Method C: Cell Growth Inhibition Assay (CellTiter-Glo), SK-MEL-28. Type of experiment: cell-based. The settings on record: Homo sapiens, SK-MEL-28, 72 h, 3 days, 4-parameter fit. As for the experimental part: (§9) Human breast tumor cells (BT474) were cultured in RPMI (Mediatech 50-011-PB), containing 10% FBS (JRH Biosciences 12176) and 1% penicillin-streptomycin (Invitrogen 15140). Human head and neck tumor cells (HN5) were cultured in high glucose DMEM (Mediatech 50-013-PB) containing 10% FBS and 1% penicillin-streptomycin. Human colon tumor cells (Colo205) were cultured in RPMI (Mediatech 50-020-PB) containing 10% FBS and 1% penicillin-streptomycin. Human melanoma cancer cells (SK-MEL-28) were cultured in EMEM with nonessential amino acids (Mediatech 50-011-PB) containing 10% FBS, 1% sodium pyruvate (JT Baker 3354-04), and 1% penicillin-streptomycin. Human melanoma cancer cells (A375P F11s) were cultured in RPMI (Mediatech 50-020-PB) containing 10% FBS, 1% sodium pyruvate, and 1% penicillin-streptomycin. Human colon cancer cells (HT-29) were cultured in high glucose DMEM (Mediatech 50-013-PB) containing 10% FBS and 1% penicillin-streptomycin. Human melanoma cancer cells (SK-MEL-3) were cultured in McCoy's 5A (50-025-PB) containing 15% FBS, and 1% penicillin-streptomycin. All cell lines were maintained at 37° C. in a humidified 5% CO2, 95% air incubator. Cells were harvested using trypsin/EDTA (Invitrogen 25200), counted using an haemocytometer, and plated. For 96-well assays (using white full-area NUNC plates cat. #136102), cells were plated in 105 μL at the following densities (cells/well): HN5, 500; Colo205, 500; SK-MEL-28, 500; A375P-F11s, 500; HT-29, 500; SK-MEL-3, 500; and BT474, 3000. For 384-well assays (white full-area NUNC plates, cat. #781080), cells were plated in 48 μL at the following densities (cells/well): HN5, 500; Colo205, 500; SK-MEL-28, 500; A375P-F11s, 500; HT29, 500; SK-MEL-3, 500; and BT474, 2000.
(§10) The next day, compounds were diluted as follow: For 96-well assays, 13.5 μL of compound in DMSO were diluted using nine (9) serial 1:3 dilutions of 4.5 μL in 9 μL of DMSO. Medium (270 μl/well of RPMI with 10% FBS and 1% penicillin-streptomycin) was added to the plates. Aliquots (7 μl) were added to cells in the final assay giving a final DMSO concentration of 0.2%. For 384-well assays, 15 μL of compound in DMSO were diluted using nine (9) serial 1:3 dilutions of 5 μL in 10 μL of DMSO, followed by a further dilution of 5 μL of compound with 95 μL of medium, of which 2 μL were added to cells in the final assay giving a final DMSO concentration of 0.2%. Cells were incubated at 37° C., 5% CO2 for 3 days.
(§11) Total ATP was measured (as a surrogate estimate of cell number) using CellTiter-Glo® reagent (Promega G7571). Briefly, plates were removed from the incubator and allowed to equilibrate to room temperature for 30 minutes. CellTiter-Glo® (25 μL or 55 μL for 384-well or 96-well assays, respectively) reagent was added to each well and plates were shaken on an orbital plate shaker for 2 mins. Plates were incubated without shaking for a further 30 mins and read on an LJL Analyst GT reader in luminometer mode with an integration time of 0.5 seconds per well. Percent inhibition of cell growth was calculated relative to DMSO vehicle-treated control wells. Concentration of compound required to give 50% inhibition of vehicle-treated control cell growth (IC50) was interpolated using a 4-parameter fit for determining IC50 using the following equation: Y=A+((B−A)/(1+((C/X)̂D))) where X=IC50.

In another experiment the target is T2, EGFR (Homo sapiens, UniProt P00533).
T2 construct: made in house; host or cells: baculovirus expression system
T2 sequence (P00533 25-1210): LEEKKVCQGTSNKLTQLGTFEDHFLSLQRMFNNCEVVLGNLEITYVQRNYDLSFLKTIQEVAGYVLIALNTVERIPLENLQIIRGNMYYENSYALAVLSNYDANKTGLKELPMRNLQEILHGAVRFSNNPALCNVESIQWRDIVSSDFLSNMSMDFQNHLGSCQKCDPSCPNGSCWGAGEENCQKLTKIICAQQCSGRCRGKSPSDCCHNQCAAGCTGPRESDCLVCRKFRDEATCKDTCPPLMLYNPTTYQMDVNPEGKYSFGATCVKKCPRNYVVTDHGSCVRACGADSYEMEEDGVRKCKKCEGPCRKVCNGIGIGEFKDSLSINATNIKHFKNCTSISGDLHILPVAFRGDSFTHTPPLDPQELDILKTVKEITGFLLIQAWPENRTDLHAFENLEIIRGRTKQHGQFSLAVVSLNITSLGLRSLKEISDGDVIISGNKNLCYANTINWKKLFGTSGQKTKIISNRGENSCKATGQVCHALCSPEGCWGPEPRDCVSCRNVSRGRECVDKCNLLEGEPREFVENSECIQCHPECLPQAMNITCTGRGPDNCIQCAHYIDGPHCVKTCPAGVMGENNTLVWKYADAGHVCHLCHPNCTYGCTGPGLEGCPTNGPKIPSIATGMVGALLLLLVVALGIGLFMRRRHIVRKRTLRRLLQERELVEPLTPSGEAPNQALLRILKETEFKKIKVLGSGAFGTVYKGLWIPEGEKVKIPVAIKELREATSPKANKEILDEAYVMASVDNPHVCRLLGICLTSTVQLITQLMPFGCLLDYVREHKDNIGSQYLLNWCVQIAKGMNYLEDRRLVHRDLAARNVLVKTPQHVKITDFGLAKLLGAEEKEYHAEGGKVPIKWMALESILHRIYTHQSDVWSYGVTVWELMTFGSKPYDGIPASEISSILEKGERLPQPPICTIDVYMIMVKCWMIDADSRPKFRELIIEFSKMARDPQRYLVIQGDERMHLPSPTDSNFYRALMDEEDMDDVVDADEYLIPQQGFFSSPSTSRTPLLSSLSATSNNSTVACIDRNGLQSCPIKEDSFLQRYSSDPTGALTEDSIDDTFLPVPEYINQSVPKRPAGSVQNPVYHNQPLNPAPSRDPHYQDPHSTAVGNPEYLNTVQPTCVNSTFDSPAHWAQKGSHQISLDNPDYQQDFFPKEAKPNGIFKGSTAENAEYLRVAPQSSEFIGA
The experiment in a line: EGFR substrate phosphorylation assay (HTRF). The settings on record: Method (A): Enzyme Mix incubated with compound at 20° C. for 1 hr, reaction started by adding Substrate Mix. The format is biochemical. Here is the method:
as §1, §2, §3, §4, §5, §6, §7, §8

For the next experiment, the system named is BT474 tumor cells. The experiment in a line: Method C: Cell Growth Inhibition Assay (CellTiter-Glo), BT474. Type of experiment: cell-based. Conditions: Homo sapiens, BT-474, 72 h, 3 days, 4-parameter fit. Here is the method:
as §9, §10, §11

Another experiment has as its system Colo205 tumor cells. The experiment in a line: Method C: Cell Growth Inhibition Assay (CellTiter-Glo), Colo205. The format is cell-based. Conditions: Homo sapiens, COLO 205, 72 h, 3 days, 4-parameter fit. Here is the method:
as §9, §10, §11

T1 sequence (P04626 23-1255): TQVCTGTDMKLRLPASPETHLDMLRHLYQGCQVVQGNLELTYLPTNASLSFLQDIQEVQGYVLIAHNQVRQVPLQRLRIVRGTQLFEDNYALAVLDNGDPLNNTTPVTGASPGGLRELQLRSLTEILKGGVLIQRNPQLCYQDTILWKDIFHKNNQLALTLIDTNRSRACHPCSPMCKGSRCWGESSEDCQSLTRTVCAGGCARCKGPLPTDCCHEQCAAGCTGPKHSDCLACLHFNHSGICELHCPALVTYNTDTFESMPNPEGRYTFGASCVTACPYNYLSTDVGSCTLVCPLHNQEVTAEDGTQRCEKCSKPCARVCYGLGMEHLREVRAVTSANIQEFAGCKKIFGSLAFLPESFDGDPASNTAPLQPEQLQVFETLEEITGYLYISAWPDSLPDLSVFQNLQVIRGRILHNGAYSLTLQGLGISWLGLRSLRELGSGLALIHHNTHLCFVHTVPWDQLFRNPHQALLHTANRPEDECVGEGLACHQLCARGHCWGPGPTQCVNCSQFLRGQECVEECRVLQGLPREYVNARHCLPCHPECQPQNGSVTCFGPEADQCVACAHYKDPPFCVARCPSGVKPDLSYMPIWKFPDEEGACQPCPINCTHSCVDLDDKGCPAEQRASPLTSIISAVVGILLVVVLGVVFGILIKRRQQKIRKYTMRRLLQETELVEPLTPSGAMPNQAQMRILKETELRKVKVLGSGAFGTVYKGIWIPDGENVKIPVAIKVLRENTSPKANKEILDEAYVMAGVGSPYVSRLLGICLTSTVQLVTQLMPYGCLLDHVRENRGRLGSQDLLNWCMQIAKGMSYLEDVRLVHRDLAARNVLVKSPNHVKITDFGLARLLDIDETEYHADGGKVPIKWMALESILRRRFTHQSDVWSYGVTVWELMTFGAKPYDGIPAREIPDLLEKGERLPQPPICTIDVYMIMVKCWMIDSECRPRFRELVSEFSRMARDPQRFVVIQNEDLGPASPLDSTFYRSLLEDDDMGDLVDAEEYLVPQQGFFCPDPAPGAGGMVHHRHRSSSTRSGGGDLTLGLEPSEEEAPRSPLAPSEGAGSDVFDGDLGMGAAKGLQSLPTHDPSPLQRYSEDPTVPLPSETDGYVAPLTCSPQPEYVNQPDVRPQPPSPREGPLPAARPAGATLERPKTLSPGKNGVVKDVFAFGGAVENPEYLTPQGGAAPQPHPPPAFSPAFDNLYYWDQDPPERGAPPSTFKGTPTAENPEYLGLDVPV

As for `COc1ccccc1C(=O)Nc1cccc(-c2nc(C)sc2-c2ccnc(Nc3ccc4c(c3)CN(C)CC4)n2)c1` [Example 130, N-[3-(2-Methyl-5-{2-[(2-methyl-1,2,3,4-tetrahydro-7-isoquinolinyl)amino]-4-pyrimidinyl}-1,3-thiazol-4-yl)phenyl]-2-(methyloxy)benzamide], the pIC50 on ErbB2 was above 7.00; with SK-MEL-28 tumor cells, below 6.00; at EGFR it was above 7.00; in the experiment on BT474 tumor cells it was below 6.00; in the experiment on Colo205 tumor cells, below 6.00.
Turning to `O=C(Nc1cccc(-c2nc(N3CCCCC3)sc2-c2ccnc(Nc3cccc(CN4CCCC4)c3)n2)c1)c1c(F)cccc1F` [Example 73, 2,6-Difluoro-N-{3-[2-(1-piperidinyl)-5-(2-{[3-(1-pyrrolidinylmethyl)phenyl]amino}-4-pyrimidinyl)-1,3-thiazol-4-yl]phenyl}benzamide], the negative-log IC50 (pIC50) on ErbB2 is above 7.00; in the experiment with SK-MEL-28 tumor cells, below 6.00; on EGFR, above 7.00; in the experiment on BT474 tumor cells, 6.00 to 7.00; in the experiment with Colo205 tumor cells, 6.00 to 7.00.
For the compound `Cc1nc(-c2cccc(NC(=O)c3cccnc3F)c2)c(-c2ccnc(Nc3ccc4c(c3)CN(C)CC4)n2)s1` [Example 137, 2-Fluoro-N-[3-(2-methyl-5-{2-[(2-methyl-1,2,3,4-tetrahydro-7-isoquinolinyl)amino]-4-pyrimidinyl}-1,3-thiazol-4-yl)phenyl]-3-pyridinecarboxamide trifluoroacetate], the pIC50 on ErbB2 is above 7.00; with SK-MEL-28 tumor cells, below 6.00; at EGFR, above 7.00; in the experiment with BT474 tumor cells, 6.00 to 7.00; in the experiment with Colo205 tumor cells it was below 6.00.
Regarding `Cc1nc(-c2cccc(NC(=O)c3cccc(Cl)c3)c2)c(-c2ccnc(Nc3ccc(OCCN(C)C)c(Cl)c3)n2)s1` [Example 136, 3-Chloro-N-[3-(5-{2-[(3-chloro-4-{[2-(dimethylamino)ethyl]oxy}phenyl)amino]-4-pyrimidinyl}-2-methyl-1,3-thiazol-4-yl)phenyl]benzamide], the pIC50 is above 7.00 on ErbB2; below 6.00 in the experiment on SK-MEL-28 tumor cells; above 7.00 on EGFR; 6.00 to 7.00 with BT474 tumor cells; below 6.00 in the experiment on Colo205 tumor cells.
Take `CN1CCN(c2nc(-c3cccc(NC(=O)c4c(F)cccc4F)c3)c(-c3ccnc(Nc4cccc(CN5CCCC5)c4)n3)s2)CC1` [Example 46, 2,6-Difluoro-N-{3-[2-(4-methyl-1-piperazinyl)-5-(2-{[3-(1-pyrrolidinylmethyl)phenyl]amino}-4-pyrimidinyl)-1,3-thiazol-4-yl]phenyl}benzamide]: the pIC50 was above 7.00 at ErbB2; below 6.00 with SK-MEL-28 tumor cells; above 7.00 at EGFR; 6.00 to 7.00 in the experiment with BT474 tumor cells; 6.00 to 7.00 in the experiment with Colo205 tumor cells.
As for `CCc1nc(-c2cccc(NC(=O)c3c(F)cccc3F)c2)c(-c2ccnc(Nc3ccc(OCCN4CCCC4)c(F)c3)n2)s1` [Example 117, N-[3-(2-Ethyl-5-{2-[(3-fluoro-4-{[2-(1-pyrrolidinyl)ethyl]oxy}phenyl)amino]-4-pyrimidinyl}-1,3-thiazol-4-yl)phenyl]-2,6-difluorobenzamide], the pIC50 is above 7.00 at ErbB2; below 6.00 with SK-MEL-28 tumor cells; above 7.00 at EGFR; 6.00 to 7.00 in the experiment on BT474 tumor cells; below 6.00 with Colo205 tumor cells.
In the case of `COc1cccc(C(=O)Nc2cccc(-c3nc(C)sc3-c3ccnc(Nc4ccc5c(c4)CN(C)CC5)n3)c2)c1` [Example 132, N-[3-(2-Methyl-5-{2-[(2-methyl-1,2,3,4-tetrahydro-7-isoquinolinyl)amino]-4-pyrimidinyl}-1,3-thiazol-4-yl)phenyl]-3-(methyloxy)benzamide trifluoroacetate], the pIC50 at ErbB2 was above 7.00; with SK-MEL-28 tumor cells, below 6.00; at EGFR, above 7.00; with BT474 tumor cells, 6.00 to 7.00; with Colo205 tumor cells it was below 6.00.
As for `CN(C)CCOc1ccc(Nc2nccc(-c3sc(NS(=O)(=O)CC(F)(F)F)nc3-c3cccc(NC(=O)c4c(F)cccc4F)c3)n2)cc1` [Example 35, N-[3-(5-{2-[(4-{[2-(Dimethylamino)ethyl]oxy}phenyl)amino]-4-pyrimidinyl}-2-{[(2,2,2-trifluoroethyl)sulfonyl]amino}-1,3-thiazol-4-yl)phenyl]-2,6-difluorobenzamide], the negative-log IC50 (pIC50) at ErbB2 was above 7.00; in the experiment with SK-MEL-28 tumor cells, below 6.00; at EGFR, above 7.00; in the experiment with BT474 tumor cells it was below 6.00; in the experiment with Colo205 tumor cells, below 6.00.
For `CN1CCc2ccc(Nc3nccc(-c4sc(CS(=O)(=O)C(C)(C)C)nc4-c4cccc(NC(=O)c5c(F)cccc5F)c4)n3)cc2C1` [Example 120, N-[3-(2-{[(1,1-Dimethylethyl)sulfonyl]methyl}-5-{2-[(2-methyl-1,2,3,4-tetrahydro-7-isoquinolinyl)amino]-4-pyrimidinyl}-1,3-thiazol-4-yl)phenyl]-2,6-difluorobenzamide], the pIC50 on ErbB2 was above 7.00; in the experiment on SK-MEL-28 tumor cells, below 6.00; on EGFR, above 7.00; in the experiment with BT474 tumor cells, above 7.00; in the experiment with Colo205 tumor cells, 6.00 to 7.00.
